In PMC7133791 (ChemMedChem, 2020):

Key:
[1] = molecular target: M. tuberculosis topoI (MttopoI) (Mycobacterium tuberculosis, UniProt P9WG49); test: DNA relaxation inhibition assay; assay type: biochemical; details: assay conditions for MttopoI not stated; data not shown
[2] = molecular target: T1, Escherichia coli topoisomerase I (EctopoI) (Escherichia coli, UniProt P06612); test: SPR; assay type: binding; details: PBS-P, pH 7.4, 1% DMSO; no DNA; average of three experimental replicates
T1 sequence (P06612 1-865): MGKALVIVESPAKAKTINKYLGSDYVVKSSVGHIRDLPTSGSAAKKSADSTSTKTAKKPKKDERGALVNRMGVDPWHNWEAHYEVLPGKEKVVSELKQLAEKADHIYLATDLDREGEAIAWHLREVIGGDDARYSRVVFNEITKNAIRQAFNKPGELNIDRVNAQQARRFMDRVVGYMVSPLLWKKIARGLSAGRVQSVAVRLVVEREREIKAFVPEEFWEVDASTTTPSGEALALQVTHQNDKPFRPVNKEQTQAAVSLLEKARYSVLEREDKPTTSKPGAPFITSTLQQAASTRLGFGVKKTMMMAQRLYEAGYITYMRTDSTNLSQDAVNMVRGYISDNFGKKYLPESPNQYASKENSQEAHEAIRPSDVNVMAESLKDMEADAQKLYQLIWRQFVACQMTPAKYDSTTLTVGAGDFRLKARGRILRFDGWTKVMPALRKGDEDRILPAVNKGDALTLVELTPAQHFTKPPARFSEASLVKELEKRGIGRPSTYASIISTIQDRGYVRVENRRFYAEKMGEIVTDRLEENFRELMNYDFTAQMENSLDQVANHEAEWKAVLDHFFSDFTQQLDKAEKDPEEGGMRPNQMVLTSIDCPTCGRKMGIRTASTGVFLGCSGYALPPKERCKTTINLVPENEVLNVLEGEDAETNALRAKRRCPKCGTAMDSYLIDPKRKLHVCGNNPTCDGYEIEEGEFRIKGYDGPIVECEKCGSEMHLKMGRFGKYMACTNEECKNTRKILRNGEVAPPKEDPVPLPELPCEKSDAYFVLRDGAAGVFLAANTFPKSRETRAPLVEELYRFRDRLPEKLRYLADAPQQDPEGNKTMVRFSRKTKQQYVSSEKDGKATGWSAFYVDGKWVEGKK

Sequence of M. tuberculosis topoI (MttopoI) (P9WG49 whole entry): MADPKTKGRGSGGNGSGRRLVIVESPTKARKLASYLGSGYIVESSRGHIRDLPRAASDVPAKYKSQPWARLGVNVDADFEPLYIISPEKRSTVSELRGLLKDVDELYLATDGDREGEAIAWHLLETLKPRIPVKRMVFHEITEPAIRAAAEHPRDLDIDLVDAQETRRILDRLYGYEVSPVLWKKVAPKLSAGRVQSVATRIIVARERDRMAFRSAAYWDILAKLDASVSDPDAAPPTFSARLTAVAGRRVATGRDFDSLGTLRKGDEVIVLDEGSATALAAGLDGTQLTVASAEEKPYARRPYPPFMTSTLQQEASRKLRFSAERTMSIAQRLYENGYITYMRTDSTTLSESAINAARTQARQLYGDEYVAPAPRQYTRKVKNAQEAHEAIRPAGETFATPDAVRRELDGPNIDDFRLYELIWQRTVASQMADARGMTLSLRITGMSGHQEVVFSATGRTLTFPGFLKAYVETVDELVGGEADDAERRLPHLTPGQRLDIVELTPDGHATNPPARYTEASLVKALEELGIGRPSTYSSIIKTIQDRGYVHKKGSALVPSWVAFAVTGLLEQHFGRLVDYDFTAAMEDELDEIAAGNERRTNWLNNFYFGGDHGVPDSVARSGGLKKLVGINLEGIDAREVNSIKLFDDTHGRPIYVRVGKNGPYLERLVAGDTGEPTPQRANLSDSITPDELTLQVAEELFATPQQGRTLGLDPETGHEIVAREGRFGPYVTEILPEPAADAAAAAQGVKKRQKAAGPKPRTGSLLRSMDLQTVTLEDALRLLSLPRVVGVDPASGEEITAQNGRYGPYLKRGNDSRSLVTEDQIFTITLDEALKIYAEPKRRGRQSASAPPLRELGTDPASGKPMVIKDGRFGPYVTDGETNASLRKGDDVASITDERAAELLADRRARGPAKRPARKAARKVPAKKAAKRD

O=C(Nc1ccc(Sc2ccc(N=Nc3c(O)c(S(=O)(=O)O)cc4cc(S(=O)(=O)O)ccc34)cc2)cc1)c1ccc(N=Nc2c(O)ccc3c(S(=O)(=O)O)cc(S(=O)(=O)O)cc23)cc1 [NSC76027]
IC50 [1]: ~3000 nM
Kd [2]: 79 ± 8 nM
